{
  "source": "patent US11572402B2",
  "about": "“Method for promoting diversification of antibody variable region” (Chiome Bioscience Inc., priority 2017, dated 2023)",
  "key": {"[1]": {"test_system": "hVEGF-A-#33 cell line", "experiment": "Affinity Maturation and FCM, cells in Affinity Maturation Gate", "format": "cell-based, chicken", "settings": "A66 10 μM, PI3Kα Inhibitor 2 500 nM, Day 7, versus conditions without drug", "protocol": "(§1) Frozen stocks of the hVEGF-A #33 cell line and the hVEGF-A #44 cell line (3.0×10^6 cells) were each awaken with a CS(−) medium, using a 25 cm^2 Flask (Corning, 430639), and were then cultured in a CO2 incubator (SANYO CO2 Incubator MCO-20AIC, 39.5° C., 5% CO2). On the following day, the cells were seeded on a 6-well dish (Nunc, 140675) to a cell density of 1.0×10^4 cells/mL (wherein the cell concentration and the survival rate were measured using CASY cell counter (Nepa Gene)). The cells were cultured in a CS(+) medium, in the presence or absence of a PI3Kα inhibitor (A66: 10 μM, PI3Kα Inhibitor 2: 500 nM). Moreover, after the cells had been cultured for 2 days, individual samples were subcultured under the same conditions to result in a cell density of 1.0×10^4 cells/mL. […] A plot, in which the vertical axis indicated AF647 (AF647-labeled hVEGF-A) and the longitudinal axis indicated PE (Goat Anti-Human IgG-PE), was developed, and the percentage of PE+(hIgG+)/[…] cells was then calculated. […] The percentage of clones with improved antigen-binding ability was calculated by counting the number of cells existing in this Affinity Maturation Gate and then dividing the obtained value by the total number of the analyzed cells. […]"}, "[2]": {"test_system": "hVEGF-A-#44 cell line", "experiment": "Affinity Maturation and FCM, cells in Affinity Maturation Gate", "format": "cell-based, chicken", "settings": "A66 10 μM, PI3Kα Inhibitor 2 500 nM, Day 7, versus conditions without drug", "protocol": "as §1"}},
  "data": [
    {"smiles": "Cc1nc(NC(=O)N2CCC[C@H]2C(N)=O)sc1-c1csc(C(C)(C)C)n1", "note": "[A66]", "values": [
      {"measurement": "percentage of the cells with improved antigen-binding ability (Affinity Maturation Gate, 5 or more times increased in MFI)", "setting": "[1]", "result": "increased"},
      {"measurement": "percentage of the cells with improved antigen-binding ability (Affinity Maturation Gate, 5 or more times increased in MFI)", "setting": "[2]", "result": "increased"}
    ]}
  ]
}
